Data taken from patent publication US11638709B2, “Rucaparib, Talazoparib, Veliparib, Olaparib and AZD 2461 for treating impaired skin wound healing” (AKRIBES BIOMEDICAL GMBH, priority 2017, dated 2023).

Tests used:
[1] = tested on: alpha-smooth muscle actin (α-SMA) in human dermal fibroblasts; assay: Immunolocalization of alpha-smooth muscle actin in 2D HDF culture; type: cell-based; details: FIG. 16; wound exudates #91 and #55; talazoparib 0.1 μM
Experimental: Primary human dermal fibroblasts (HDF) were purchased from CELLnTEC, Bern. They were routinely grown in Dulbecco's modified Eagle's medium (DMEM) containing 10% FCS, 2 mM glutamine, and 100 U/ml penicillin/100 μg/ml streptomycin. Media, antibiotics, and glutamine were bought from Lonza. The cells were used at passage 5-15. Cells were trypsinized and seeded at 5000 cells/well in 200 μl into the inner wells of 96-well plates. The outer wells were loaded with sterile water. The cells were allowed to adhere overnight and then incubated for 72 hours at 37° C. under the following conditions: graded compound concentrations or 20 ng/ml PDGF-BB (Tonbo Biosciences) in the absence or presence of different dilutions of sterile-filtered WE in medium. For control samples, 200 μl medium was added instead of specific stimuli. Alternatively, the cells were seeded into 384-well plates at 2500 cells/well directly together with test compounds or growth factors and WE or medium in a total volume of […].
After fixation with paraformaldehyde, the cells were incubated for 1 hour at room temperature with a monoclonal mouse-anti-human antibody against alpha-smooth muscle actin (α-SMA) from e-Bioscience, washed 3 times with PBS and developed with an Alexa Fluor-labelled donkey-anti-mouse IgG (Molecular Probes). […]

[2] = tested on: wound exudate-induced pig wounds; assay: Porcine model of delayed wound healing induced by human wound exudates; type: in vivo; details: veliparib 10 mM, talazoparib 1 mM
From the text: The pig is regarded as the species with the highest correlation to man in skin anatomy and physiology. Pig wounds tend to heal by a combination of granulation tissue formation and contraction, similar to human wounds, and porcine wound healing studies show a high concordance with human studies. We developed a chronically inflamed porcine wound model. Acute pig wounds were stimulated by a combination of human chronic wound fluids and the toll-like receptors 7 and 8 (TLR7,8) agonist resiquimod (R848).
Female domestic white pigs at the age of 10-12 weeks and a body weight of approximately 12 kg were sedated with 20 mg Ketamin/2 mg Xylacin i.m. followed by inhalation anesthesia via Isofluran. Immediately after induction of anesthesia, a fentanyl transdermal patch (50 μg/h) was applied to control postsurgical pain. The fentanyl patch was replaced daily for the first 3 days after surgery and afterwards only when signs of pain were apparent. Before wounding, the back hair of the animals was clipped and the skin was cleaned with Braunol and disinfected with Skinsept. Then a total of 24 full-thickness excisional wounds per animal were applied using a 6 mm disposable biopsy punch. Immediately after wounding 50 μl of a 0.05% R848 gel was applied topically to the wounds which were covered with dressing (Mölnlycke Health Care AB, Sweden). 6 hours later, the wounds were treated with 3% HPMC (hydroxypropyl methylcellulose)-gellified human wound exudates or human serum as controls. Wound exudates had been harvested from negative pressure wound therapy systems used to treat patients diagnosed with chronic ulcers. Induction of wound inflammation by R848 and wound exudate was carried out for a total of 5 consecutive days.
From day 6 to day 10, veliparib and talazoparib at 10 mM and 1 mM, respectively, were dissolved in vehicle (50% propylene glycol/47.5% water/0.5% Tween 80/2.0% HPMC), applied to the wounds once daily and covered with dressing. Until day 12, wounds and surrounding skin were clinically examined once daily, upon dressing change, and observed changes were scored on a scale from 0-3. The following criteria were used:
The total achievable score (non-healing) is 19. Healing is associated with low scores.

[3] = FIG. 18, induced by WE #91, topical once daily day 6-10
[4] = FIG. 19, induced by WE #43, day 6-10

Structure (SMILES)	expression of α-SMA [1]	delayed pig wound healing (time course, clinical score) [2, 3]	delayed pig wound healing (time course, clinical score) [2, 4]
Cn1ncnc1[C@H]1c2n[nH]c(=O)c3cc(F)cc(c23)N[C@@H]1c1ccc(F)cc1 [Talazoparib]	able to induce expression of α-SMA	improve wound healing	improves wound healing
C[C@]1(c2nc3c(C(N)=O)cccc3[nH]2)CCCN1 [Veliparib, 2-((2R)-2-methylpyrrolidin-2-yl)-1H-benzimidazole-4-carboxamide]	–	improve wound healing	only a minor effect
